Measured values from patent US20130178475A1, “sGC STIMULATORS” (IRONWOOD PHARMACEUTICALS, INC., priority 2010, published 2013).

Target: T1, soluble guanylate cyclase (sGC) (Homo sapiens, UniProt Q02108+Q02153)
T1 construct: endogenously expressing soluble guanylate cyclase (sGC); endogenous in cells; host or cells: HEK293
T1 sequence (Q02153 1-619): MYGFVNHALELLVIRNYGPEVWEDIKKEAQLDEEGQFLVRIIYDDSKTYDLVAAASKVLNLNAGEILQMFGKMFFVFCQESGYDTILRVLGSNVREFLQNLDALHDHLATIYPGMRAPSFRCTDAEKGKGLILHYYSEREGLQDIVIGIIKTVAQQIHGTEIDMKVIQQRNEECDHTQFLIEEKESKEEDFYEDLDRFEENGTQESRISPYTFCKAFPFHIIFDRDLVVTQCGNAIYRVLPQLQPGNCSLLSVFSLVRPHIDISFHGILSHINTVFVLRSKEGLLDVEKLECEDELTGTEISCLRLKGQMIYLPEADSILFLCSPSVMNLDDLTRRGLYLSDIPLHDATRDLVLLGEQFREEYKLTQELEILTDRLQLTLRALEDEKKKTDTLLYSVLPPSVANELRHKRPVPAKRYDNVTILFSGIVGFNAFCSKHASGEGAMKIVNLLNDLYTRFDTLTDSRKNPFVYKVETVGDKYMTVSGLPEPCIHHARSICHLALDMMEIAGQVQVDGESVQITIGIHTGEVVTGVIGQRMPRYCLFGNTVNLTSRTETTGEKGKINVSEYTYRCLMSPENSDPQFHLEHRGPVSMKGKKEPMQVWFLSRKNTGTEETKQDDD
T1 sequence (Q02108 1-690): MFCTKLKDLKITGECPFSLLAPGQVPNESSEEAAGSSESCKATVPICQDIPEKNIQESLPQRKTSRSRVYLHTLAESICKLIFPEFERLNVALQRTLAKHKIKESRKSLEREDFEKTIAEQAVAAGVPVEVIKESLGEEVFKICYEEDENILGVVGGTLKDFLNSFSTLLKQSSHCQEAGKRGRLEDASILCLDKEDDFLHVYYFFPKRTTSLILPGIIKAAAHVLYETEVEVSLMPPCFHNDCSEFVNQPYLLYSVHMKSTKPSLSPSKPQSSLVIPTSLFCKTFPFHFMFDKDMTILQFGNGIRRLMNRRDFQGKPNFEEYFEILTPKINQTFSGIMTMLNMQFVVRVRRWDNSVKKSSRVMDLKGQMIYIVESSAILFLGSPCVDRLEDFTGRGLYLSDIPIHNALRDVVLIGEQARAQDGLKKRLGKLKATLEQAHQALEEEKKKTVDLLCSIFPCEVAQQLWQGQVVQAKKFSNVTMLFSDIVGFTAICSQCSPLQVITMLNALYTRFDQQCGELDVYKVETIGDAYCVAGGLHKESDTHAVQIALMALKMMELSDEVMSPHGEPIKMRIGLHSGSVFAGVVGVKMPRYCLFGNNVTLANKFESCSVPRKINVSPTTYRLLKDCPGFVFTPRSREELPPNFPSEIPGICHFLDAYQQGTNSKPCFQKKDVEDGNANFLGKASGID
Experiment: sGC-HEK-cGMP assay
Assay type: cell-based
Conditions: HEK293 cells, 10 min incubation, intracellular cGMP by LC/MS; for Increase in cGMP Concentration Tested at 10 μM in HEK Assay: test compound 10 μM; for Increase in cGMP Concentration Tested at 30 μM in HEK Assay: test compound 30 μM
Method: Human embryonic kidney cells (HEK293), endogenously expressing soluble guanylate cyclase (sGC), were used to evaluate the activity of test compounds. Compounds stimulating the sGC receptor should cause an increase in the intracellular concentration of cGMP. […] Cells were then incubated for 15 minutes at 37° C. with 0.5 mM 3-isobutyl-1-methylxanthine (2004). Test article was then added to the assay mixture (2 μL) and incubated at 37° C. for 10 minutes. After the 10 minute incubation, the assay mixture was aspirated and 0.1M HCl (2004) was added to the cells. The plate was incubated at 4° C. for 30 minutes in the 0.1M HCl to stop the reaction and lyse the cells. The plates were then centrifuged at 1,200 g for 5 minutes at room temperature. Supernatants were collected and transferred to a new flat bottom 96 well plate for analysis. Vehicle controls were carried out using DMSO (1%). A known sGC stimulator, BAY 41-2272, was used as the positive control.
Samples were diluted with an equal volume of 1 M Ammonium Acetate (pH 7) to neutralize samples for better chromatography. A 2×cGMP standard curve was prepared in 0.1 M HCl and then diluted with an equal volume of 1 M Ammonium Acetate, with the following final concentrations in nM: 1024, 512, 256, 128, 64, 32, 16, 8, 4, 2, 1.
cGMP concentrations were determined from each sample using the LC/MS conditions (Table 2 below) and calculated standard curve. EC50 values were calculated from concentration-response curves generated with GraphPad Prism Software.

With Fc1ccccc1Cn1nc(-c2ncccn2)c2c1CCC2 [Compound I-2] the “Increase in cGMP Concentration Tested at 10 μM in HEK Assay” value (“Increase … at 10 μM in HEK Assay” below) was “C (C represents an increase ranging from 10 fold to less than 20 fold)” and the “Increase in cGMP Concentration Tested at 30 μM in HEK Assay” value (from here on “Increase … at 30 μM in HEK Assay”) was “D (D represents an increase ranging from 20 fold to less than 50 fold)”.
In the case of Nc1nc(N)nc(-c2nn(Cc3ccccc3F)c3c2CCC3)n1 [Compound I-4], the “Increase … at 10 μM in HEK Assay” value is reported as “A (A represents no increase or an increase ranging from more than 0 fold to less than 5 fold)” and the “Increase … at 30 μM in HEK Assay” value is reported as “A (A represents no increase or an increase ranging from more than 0 fold to less than 5 fold)”.
With COc1cccc(Cn2nc(-c3ncccn3)c3c2CCCC3)c1 [Compound I-5] the “Increase … at 10 μM in HEK Assay” value was “B (B represents an increase ranging from 5 fold to less than 10 fold)” and the “Increase … at 30 μM in HEK Assay” value was “C (C represents an increase ranging from 10 fold to less than 20 fold)”.
Fc1ccc(Cn2nc(-c3ncccn3)c3c2CCCC3)cc1 [Compound I-6] was tested, and the “Increase … at 10 μM in HEK Assay” value was “A (A represents no increase or an increase ranging from more than 0 fold to less than 5 fold)” and the “Increase … at 30 μM in HEK Assay” value was “A (A represents no increase or an increase ranging from more than 0 fold to less than 5 fold)”.
With Fc1cccc(Cn2nc(-c3ncccn3)c3c2CCCC3)c1 [Compound I-7] the “Increase … at 10 μM in HEK Assay” value was “C (C represents an increase ranging from 10 fold to less than 20 fold)” and the “Increase … at 30 μM in HEK Assay” value was “D (D represents an increase ranging from 20 fold to less than 50 fold)”.
With N#Cc1ccccc1Cn1nc(-c2ncccn2)c2c1CCCC2 [Compound I-8] the “Increase … at 10 μM in HEK Assay” value was “C (C represents an increase ranging from 10 fold to less than 20 fold)” and the “Increase … at 30 μM in HEK Assay” value was “D (D represents an increase ranging from 20 fold to less than 50 fold)”.
With N#Cc1cccc(Cn2nc(-c3ncccn3)c3c2CCCC3)c1 [Compound I-9] the “Increase … at 10 μM in HEK Assay” value was “A (A represents no increase or an increase ranging from more than 0 fold to less than 5 fold)” and the “Increase … at 30 μM in HEK Assay” value was “B (B represents an increase ranging from 5 fold to less than 10 fold)”.
In the case of c1cnc(-c2nn(Cc3cccc4ccsc34)c3c2CCCC3)nc1 [Compound I-10], the “Increase … at 10 μM in HEK Assay” value is reported as “B (B represents an increase ranging from 5 fold to less than 10 fold)” and the “Increase … at 30 μM in HEK Assay” value is reported as “B (B represents an increase ranging from 5 fold to less than 10 fold)”.
With c1cnc(-c2nn(Cc3cccc4ccccc34)c3c2CCCC3)nc1 [Compound I-11] the “Increase … at 10 μM in HEK Assay” value was “A (A represents no increase or an increase ranging from more than 0 fold to less than 5 fold)” and the “Increase … at 30 μM in HEK Assay” value was “A (A represents no increase or an increase ranging from more than 0 fold to less than 5 fold)”.
For Nc1nc(-c2nn(Cc3ccccc3F)c3c2CCCC3)nc(N)c1N [Compound I-12], the “Increase … at 10 μM in HEK Assay” value was “A (A represents no increase or an increase ranging from more than 0 fold to less than 5 fold)” and the “Increase … at 30 μM in HEK Assay” value was “A (A represents no increase or an increase ranging from more than 0 fold to less than 5 fold)”.
COC(=O)Nc1c(N)nc(-c2nn(Cc3ccccc3F)c3c2CCCC3)nc1N [Compound I-13] was tested, and the “Increase … at 10 μM in HEK Assay” value was “A (A represents no increase or an increase ranging from more than 0 fold to less than 5 fold)” and the “Increase … at 30 μM in HEK Assay” value was “A (A represents no increase or an increase ranging from more than 0 fold to less than 5 fold)”.
In the case of Fc1ccccc1Cn1nc(-c2ncccn2)c2c1CCSC2 [Compound I-15], the “Increase … at 10 μM in HEK Assay” value is reported as “C (C represents an increase ranging from 10 fold to less than 20 fold)” and the “Increase … at 30 μM in HEK Assay” value is reported as “C (C represents an increase ranging from 10 fold to less than 20 fold)”.
CC1(C)CCCc2c(-c3ncccn3)nn(Cc3ccccc3F)c21 [Compound I-16] was tested, and the “Increase … at 10 μM in HEK Assay” value was “A (A represents no increase or an increase ranging from more than 0 fold to less than 5 fold)” and the “Increase … at 30 μM in HEK Assay” value was “B (B represents an increase ranging from 5 fold to less than 10 fold)”.
For CC1(C)CCc2c(c(-c3ncccn3)nn2Cc2ccccc2F)C1 [Compound I-17], the “Increase … at 10 μM in HEK Assay” value was “B (B represents an increase ranging from 5 fold to less than 10 fold)” and the “Increase … at 30 μM in HEK Assay” value was “A (A represents no increase or an increase ranging from more than 0 fold to less than 5 fold)”.
For Fc1ccccc1Cn1nc(-c2ncccn2)c2c1CCCCC2 [Compound I-18], the “Increase … at 10 μM in HEK Assay” value was “B (B represents an increase ranging from 5 fold to less than 10 fold)” and the “Increase … at 30 μM in HEK Assay” value was “C (C represents an increase ranging from 10 fold to less than 20 fold)”.
O=S1(=O)CCc2c(c(-c3ncccn3)nn2Cc2ccccc2F)C1 [Compound I-19] was tested, and the “Increase … at 10 μM in HEK Assay” value was “A (A represents no increase or an increase ranging from more than 0 fold to less than 5 fold)” and the “Increase … at 30 μM in HEK Assay” value was “A (A represents no increase or an increase ranging from more than 0 fold to less than 5 fold)”.
In the case of CC1(C)CC(=O)c2c(-c3ncccn3)nn(Cc3ccccc3F)c2C1 [Compound I-20], the “Increase … at 10 μM in HEK Assay” value is reported as “A (A represents no increase or an increase ranging from more than 0 fold to less than 5 fold)” and the “Increase … at 30 μM in HEK Assay” value is reported as “A (A represents no increase or an increase ranging from more than 0 fold to less than 5 fold)”.
With O=C1CCCc2c1c(-c1ncccn1)nn2Cc1ccccc1F [Compound I-21] the “Increase … at 10 μM in HEK Assay” value was “A (A represents no increase or an increase ranging from more than 0 fold to less than 5 fold)” and the “Increase … at 30 μM in HEK Assay” value was “A (A represents no increase or an increase ranging from more than 0 fold to less than 5 fold)”.
In the case of COC(=O)N(Cc1ccccc1F)c1c(N)nc(-c2nn(Cc3ccccc3F)c3c2CCCC3)nc1N [Compound I-23], the “Increase … at 10 μM in HEK Assay” value is reported as “C (C represents an increase ranging from 10 fold to less than 20 fold)” and the “Increase … at 30 μM in HEK Assay” value is reported as “C (C represents an increase ranging from 10 fold to less than 20 fold)”.
In the case of COC(=O)N(Cc1ccccc1F)c1c(N)nc(-c2nn(Cc3ccccc3F)c3c2CCCC3)nc1NCc1ccccc1F [Compound I-24], the “Increase … at 10 μM in HEK Assay” value is reported as “A (A represents no increase or an increase ranging from more than 0 fold to less than 5 fold)” and the “Increase … at 30 μM in HEK Assay” value is reported as “A (A represents no increase or an increase ranging from more than 0 fold to less than 5 fold)”.
In the case of Nc1nc(-c2nn(Cc3ccccc3F)c3c2CCCC3)nc(N)c1NC(=O)OCCCl [Compound I-25], the “Increase … at 10 μM in HEK Assay” value is reported as “A (A represents no increase or an increase ranging from more than 0 fold to less than 5 fold)” and the “Increase … at 30 μM in HEK Assay” value is reported as “B (B represents an increase ranging from 5 fold to less than 10 fold)”.
For Nc1nc(-c2nn(Cc3ccccc3F)c3c2CCCC3)nc(N)c1N1CCOC1=O [Compound I-26], the “Increase … at 10 μM in HEK Assay” value was “A (A represents no increase or an increase ranging from more than 0 fold to less than 5 fold)” and the “Increase … at 30 μM in HEK Assay” value was “B (B represents an increase ranging from 5 fold to less than 10 fold)”.
